Experimental data: patent publication US20110002897A1, “DIRECTED DIFFERENTIATION OF STEM CELLS” (Burnham Institute for Medical Research, priority 2009, published 2011)
“Also recorded” adds a separate entry of the source.

B1: Noggin: BMP antagonist, recombinant protein (Peprotech) (protein, UniProt Q13253 28-232, looked up)
Noggin: QHYLHIRPAPSDNLPLVDLIEHPDPIFDPKEKDLNETLLRSLLGGHYDPGFMATSPPEDRPGGGGGAAGGAEDLAELDQLLRQRPSGAMPSEIKGLEFSEGLAQGKKQRLSKKLRRKLQMWLWSQTFCPVLYAWNDLGSRFWPRYVKVGSCFSKRSCSVPEGMVCKPSKSVHLTVLRWRCQRRGGQRCGWIPIQYPIISECKCSC
B2: MK: 13-kDa cysteine-rich secreted heparin-binding growth and differentiation factor; recombinant protein (Millipore) (protein, UniProt P21741 21-143, looked up)
Midkine: VAKKKDKVKKGGPGSECAEWAWGPCTPSSKDCGVGFREGTCGAQTQRIRCRVPCNWKKEFGADCKYKFENWGACDGGTGTKVRQGTLKKARYNAQCQETIRVTKPCTPKTKAKAKAKKGKGKD
B3: delta-like 1: Notch ligand (R&D) (protein, UniProt O00548 18-723, looked up)
Delta-like protein 1: QVWSSGVFELKLQEFVNKKGLLGNRNCCRGGAGPPPCACRTFFRVCLKHYQASVSPEPPCTYGSAVTPVLGVDSFSLPDGGGADSAFSNPIRFPFGFTWPGTFSLIIEALHTDSPDDLATENPERLISRLATQRHLTVGEEWSQDLHSSGRTDLKYSYRFVCDEHYYGEGCSVFCRPRDDAFGHFTCGERGEKVCNPGWKGPYCTEPICLPGCDEQHGFCDKPGECKCRVGWQGRYCDECIRYPGCLHGTCQQPWQCNCQEGWGGLFCNQDLNYCTHHKPCKNGATCTNTGQGSYTCSCRPGYTGATCELGIDECDPSPCKNGGSCTDLENSYSCTCPPGFYGKICELSAMTCADGPCFNGGRCSDSPDGGYSCRCPVGYSGFNCEKKIDYCSSSPCSNGAKCVDLGDAYLCRCQAGFSGRHCDDNVDDCASSPCANGGTCRDGVNDFSCTCPPGYTGRNCSAPVSRCEHAPCHNGATCHERGHRYVCECARGYGGPNCQFLLPELPPGPAVVDLTEKLEGQGGPFPWVAVCAGVILVLMLLLGCAAVVVCVRLRLQKHRPPADPCRGETETMNNLANCQREKDISVSIIGATQIKNTNKKADFHGDHSADKNGFKARYPAVDYNLVQDLKGDDTAVRDAHSKRDTKCQPQGSSGEEKGTPTTLRGGEASERKRPDSGCSTSKDTKYQSVYVISEEKDECVIATEV

Experiments:
[1] = tested on: ALK 5, 4, 7; conditions: Tojo et al. 2005; cited from earlier work
[2] = tested on: H9 hESCs; test: Feeder-free neural induction on Matrigel, PAX6/Nestin by FACS and immunostaining; type: cell-based, human; conditions: for total H9 hESCs differentiated into PAX6+/Nestin+ cells (FACS): 10 μM inhibitor together with 100 ng/mL MK+DAP
[3] = tested on: ERK1/2; test: Western blot of phospho-ERK1/2 (MAPK pathway); type: cell-based, human; conditions: 100 ng/mL, 24 hr
Excerpt: (§1) The signal transduction pathway(s) involved in this highly efficient neural conversion was addressed. The PI3K/MAPK pathways were focused on since MK-induced activation of both pathways has been reported (Kadomatsu et al. Cancer Lett. 204:127-143, 2004; Stoica et al. JBC 277:35990-35998, 2002). Since both pathways are already active in undifferentiated hESCs and necessary for their growth (Bendall et al. Nature 448:1015-1021, 2007; Vallier et al. J. Cell. Sci. 118:4495-4509, 2005; Xu et al. Nat. Methods 2:185-190, 2005), cells were exposed to high concentrations (100 ng/mL) of MK, IGF-1, and FGF-2 for 24 hr and phosphorylation levels of AKT and ERK1/2 were compared (FIG. 4a).
(§2) Cell lysates were prepared in RIPA buffer containing protease and phosphatase inhibitors (Pierce). 4-12% gradient gels (NuPage) were used with Invitrogen's SureLock Mini-Cell and gel-to-membrane transfer was performed with the XCell Blot Module (Invitrogen). The following primary antibodies were used: goat MK (R&D), mouse and rabbit GAPDH (1:1000, Santa Cruz), p-AKT 5473 and total AKT (1:1000, Cell Signaling Technologies), phospho-ERK1/2 and total ERK1/2 (1:1000, Cell Signaling Technologies). The following secondary antibodies were used: donkey anti-mouse Alexa 680 (Invitrogen), donkey anti-rabbit Alexa 680, donkey anti-rabit 800 (Rockland), donkey anti-mouse 800. Western Blots were imaged using the Odyssey Infrared Imaging System (LI-COR).

[4] = tested on: hESCs (H9 cells); test: Neural tube-like (NTL) structure formation by hESC colonies grown on HS27 fibroblasts; type: cell-based, human; conditions: for NTL structures observed: MK applied together with FGF-2, or MK replaced by the factor
Protocol: To confirm that increased MK levels correlate with differentiation, EBs from hESCs and HS27-iPSCs were generated and quantitatively analyzed MK expression. […] To test if exogenously added MK may display neural-inducing activities, hESCs were cultured in the presence of recombinant MK protein using two different assays. First, manually passaged hESCs (H9 cells) were plated on HS27 fibroblasts and grown in the presence of 100 ng/mL MK. […] These NTLs expressed the typical neuroectodermal markers PAX6 and Nestin (FIG. 1d) and, when single NTLs were manually picked under microscopic guidance and attached to laminin-coated dishes, neuronal cells started migrating out from these structures (FIG. 9). […] Second, MK-induced differentiation was investigated under feeder-free conditions. Manually passaged H9-hESCs cells were plated on Matrigel and grown in 100 ng/mL MK for 6 days.
Human ESC lines H1, H9, H14, BG02, HSF-6, and HUES13 were cultured on matrigel (BD) or Geltrex (Invitrogen) in the presence of MEF-CM (DMEM/F12, 20% Knockout Serum Replacement, non-essential amino acids, 2-mercaptoethanol). In some experiments, hESCs and iPSCs were cultured in mTeSR medium (Stem Cell Technologies). Neural cells were grown in N2B27 supplement (Gibco). The following reagents were used: MK (Millipore), FGF-2 (NIH/NCI), BDNF (Peprotech), GDNF (Peprotech), FGF-8 (Peprotech), SHH (Peprotech and R&D Systems), Noggin (Peprotech), IGF-1 (Peprotech), DLL1, DLL4, Jagged1 (R&D), all-trans RA (Sigma), Forskolin (Sigma), A 81-01 (Tocris), Dorsomorphin (Sigma), PNU-74654 (Sigma), Rapamycin (Sigma), LY294002 (Tocris), U0126 (Tocris).
Cells were fixed with 4% paraformaldehyde and stained with following antibodies: anti-mouse OCT-4 (1:200, Santa Cruz, C-10), rabbit Nanog (1:200, Santa Cruz, H-155), mouse TRA 1-81 (1:200, Millipore), alpha-Fetoprotein (1:50, Santa Cruz, AFP-11), goat MK (1:100, R&D Systems), goat SOX17 (1:100, R&D), goat Brachyury (1:100, R&D), PAX6 (1:300, Covance), mouse and rabbit Tuj1 (1:500, Covance), goat OTX2 (1:1000, Neuromics), mouse Nestin (1:400, Millipore), rabbit OLIG2 (1:50, Santa Cruz, H-68), mouse HB9 (1:50, 81.5C10, Developmental Studies Hybridoma Bank), rabbit GFAP (1:1000, DAKO), rabbit and sheep TH (1:500, Pel-Freez), rabbit PTPz (1:50, Santa Cruz), goat ALK (1:50, Santa Cruz). Light-microscopic immunostaining for PAX6 with the DAB method was performed according to the manufacturer (Vector).

[5] = tested on: AKT; test: Western blot of AKT phosphorylation at Serine 473 (PI3K pathway); type: cell-based, human; conditions: 100 ng/mL, 24 hr
Excerpt: as §1
as §2, with “Western Blots were imaged using the Odyssey Infrared Imaging System (LI-COR).” left out

| Molecule | MAPK activation (ERK1/2 phosphorylation level) [3] | NTL structures observed [4] | also measured |
| --- | --- | --- | --- |
| Cc1cccc(-c2nn(C(=S)Nc3ccccc3)cc2-c2ccnc3ccccc23)n1 [A81-01] |  |  | potency relative to SB431542 (another inhibitor of ALK 5, 4, 7) [1]: more potent |
| O=c1cc(N2CCOCC2)oc2c(-c3ccccc3)cccc12 [LY294002] |  |  | total H9 hESCs differentiated into PAX6+/Nestin+ cells (FACS) [2]: ~95% |
| N#CC(=C(/N)Sc1ccccc1N)/C(C#N)=C(\N)Sc1ccccc1N [U0126] |  |  | total H9 hESCs differentiated into PAX6+/Nestin+ cells (FACS) [2]: ~95%; PAX6 expression / neuralization in MK+DAP-treated hESC cultures ([2]; 40 μM inhibitor together with 100 ng/mL MK+DAP): dramatically reduced; also recorded: disruption of neuralization |
| FGF-2: fibroblast growth factor 2 (NIH/NCI) | significantly stronger activation |  |  |
| IGF-1: insulin-like growth factor 1 (Peprotech) | moderate level | never observed | signaling through PI3K pathway (phosphorylation level of AKT) [5]: signal through both the PI3K pathway and the MAPK pathway |
| Jagged1: Notch ligand (R&D) |  | never observed |  |
| delta-like 4: Notch ligand (R&D) |  | never observed |  |
| B1 |  | never observed |  |
| B2 | moderate level |  | total cells differentiated into PAX6+ cells ([2]; 100 ng/mL MK alone, Matrigel, feeder-free, 6 days, FACS and immunostainings): 20-40%; solitary growing hESC colonies directly differentiated into neural tube-like (NTL) structures ([4]; 100 ng/mL MK, within 6-8 days): 5-10%; signaling through PI3K pathway (phosphorylation level of AKT) [5]: signal through both the PI3K pathway and the MAPK pathway |
| B3 |  | never observed |  |
